From patent publication US20240215583A1, “PLANT BIOLOGIC INCLUDING PYRROLOQUINOLINE QUINONE (PQQ)” (Dakota Bio LLC, priority 2022, published 2024) come the findings set out here.

In brackets after ≈: the same amount, converted by molar mass.

The nature of the series: physchem. The format is physicochemical. Conditions: 25 °C, water. The text has this:
For instance, it has been observed that PQQ can be difficult to dissolve in liquid mixtures. […] In most cases, rather than dissolving, PQQ is initially suspended within a liquid solution, but the PQQ later settles out of this suspension. Once settled, the PQQ generally becomes ineffective and is inaccessible for a plant to uptake. For example, the PQQ quickly settles out of suspension onto the bottom of any storage container which in turn inhibits the spraying or otherwise applying the PQQ onto the plants and/or soil. This inability for PQQ to remain dissolved and/or suspended is exacerbated when out in commercial agricultural fields, because the solution is typically kept in large drums or other large containers that are difficult to agitate or otherwise move so as to maintain the suspension. Moreover, there is currently no commercially practical way to dissolve PQQ in a liquid mixture to mass produce a product useful in agricultural and/or horticultural situations (i.e., growing of ornamental plants).

By solubility is commonly meant the concentration that dissolves in the medium under given conditions. For `O=C(O)c1cc(C(=O)O)c2c(n1)C(=O)C(=O)c1cc(C(=O)O)[nH]c1-2` [PQQ, 4,5-Dioxo-4,5-dihydro-1H-pyrrolo[2,3-f]quinoline-2,7,9-tricarboxylic acid], the solubility was ~212 µg/mL (≈ 641 µM).
